The record followed here is patent US10266526B2, “Substituted 1,2,3-triazoles as SMYD inhibitors for treating cancer” (EPIZYME, INC., priority 2014, dated 2019).

Molecules are shown by their SMILES. Bounds are passed on as bounds.

One may read the IC50 as the concentration that gives 50% inhibition.

SMYD3, sequence (Q9H7B4 whole entry): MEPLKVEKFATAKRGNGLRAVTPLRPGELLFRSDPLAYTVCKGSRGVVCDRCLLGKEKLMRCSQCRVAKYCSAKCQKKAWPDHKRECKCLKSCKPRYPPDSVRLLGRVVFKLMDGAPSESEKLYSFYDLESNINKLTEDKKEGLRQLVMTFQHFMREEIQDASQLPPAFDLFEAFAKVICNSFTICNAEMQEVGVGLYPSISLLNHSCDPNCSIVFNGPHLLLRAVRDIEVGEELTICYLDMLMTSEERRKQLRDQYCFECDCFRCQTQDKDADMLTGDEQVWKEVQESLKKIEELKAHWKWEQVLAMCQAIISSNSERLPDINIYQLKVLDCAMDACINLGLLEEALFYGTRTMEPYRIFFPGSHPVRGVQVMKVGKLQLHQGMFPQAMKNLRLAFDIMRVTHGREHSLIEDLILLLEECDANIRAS

One assay has as its target SMYD3 (Homo sapiens (Human), UniProt Q9H7B4). In words: SMYD3 biochemical assay (SMYD3 enzyme assay on MEKK2 protein substrate, 3H-SAM scintillation proximity assay). The following applies: Table 1A; average of n = 1 to n = 50; read-out: SMYD3 Biochem IC50. In outline:
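Native full-length human SMYD3, expressed in E. coli, was preincubated with compound for 30 min at room temperature in 25 mM Tris-Cl pH 8.0, 1 mM TCEP, 0.005% BSG and 0.005% Tween 20. ³H-SAM plus GST-MEKK2 then started the reaction. It was stopped with unlabeled SAM (100 uM final), and methylated MEKK2 was read by SPA.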
Background: In a scintillation proximity assay essentially only radioactivity close to the scintillant gives light.
`Cc1nnc(C(=O)N[C@H]2CC[C@H](NC(=O)CCN)CC2)[nH]1` [compound 543, N-((1r,4r)-4-(3-aminopropanamido)cyclohexyl)-5-methyl-4H-1,2,4-triazole-3-carboxamide]: the IC50 was greater than 50 µM.
Same read-out and setting: in the case of `N[C@H]1CC[C@H](C(=O)N[C@H]2CC[C@H](NC(=O)c3ncn[nH]3)CC2)CC1` [compound 539, N-((1R,4r)-4-((1r,4R)-4-aminocyclohexane-1-carboxamido)cyclohexyl)-1H-1,2,4-triazole-5-carboxamide] it was greater than 50 µM.

Staying with this assay, now noted: read-out: SMYD3 Biochem IC50.
Consider `NCCC(=O)N[C@H]1CC[C@H](NC(=O)Cc2cccnc2)CC1` [compound 363, 3-amino-N-((1r,4r)-4-(2-(pyridin-3-yl)acetamido)cyclohexyl)propanamide], for which the IC50 is greater than 100 µM.
On the same count and under the same terms, in the case of `NCCC(=O)N[C@H]1CC[C@H](NC(=O)c2ccc(O)nn2)CC1` [compound 270] it was greater than 100 µM; in that of `N[C@H]1CC[C@H](NC(=O)c2cccc3c2OC(F)(F)O3)CC1` [compound 307, N-((1r,4r)-4-aminocyclohexyl)-2,2-difluorobenzo[d][1,3]dioxole-4-carboxamide], greater than 100 µM; in that of `NCCC(=O)N[C@H]1CC[C@H](NC(=O)c2cccc3c2CC(=O)N3)CC1` [compound 430, N-((1r,4r)-4-(3-aminopropanamido)cyclohexyl)-2-oxoindoline-4-carboxamide], greater than 100 µM.
The same measure, in the same setting: the result for `N[C@H]1CC[C@H](NC(=O)c2nc3ccc(F)cc3s2)CC1` [compound 500, N-((1r,4r)-4-aminocyclohexyl)-6-fluorobenzo[d]thiazole-2-carboxamide] reads greater than 100 µM; that for `NCCC(=O)NC1CCC(NC(=O)c2ncc[nH]2)CC1` (stereo not shown) [compound 518, N-(4-(3-aminopropanamido)cyclohexyl)-1H-imidazole-2-carboxamide], greater than 50 µM.
Still for that read-out and setting: in the case of `CC(NC(=O)Cc1ccc2c(c1)CC(=O)N2)C1CCN(C(=O)[C@H](C)N)CC1` (stereo partly drawn) [compound 466, N-(1-(1-(L-alanyl)piperidin-4-yl)ethyl)-2-(2-oxoindolin-5-yl)acetamide] it was 60 µM; in that of `Cc1cc2cc(C(=O)N[C@H]3CC[C@H](N)CC3)ccc2[nH]1` [compound 520, N-((1r,4r)-4-aminocyclohexyl)-2-methyl-1H-indole-5-carboxamide], greater than 50 µM; in that of `NCCC(=O)N[C@H]1CC[C@H](NC(=O)Cc2c[nH]c3ccccc23)CC1` [compound 195, N-((1r,4r)-4-(2-(1H-indol-3-yl)acetamido)cyclohexyl)-3-aminopropanamide], greater than 100 µM.
Regarding `CC(NC(=O)Cc1ccc(F)cc1)C1CCN(C(=O)[C@H](C)N)CC1` (stereo partly drawn) [compound 206, N-(1-(1-(L-alanyl)piperidin-4-yl)ethyl)-2-(4-fluorophenyl)acetamide], the IC50 is greater than 100 µM.
On the same count and under the same terms, the result for `NCCC(=O)N[C@H]1CC[C@H](NS(=O)(=O)c2ccc3c(c2)CC(=O)N3)CC1` [compound 449, 3-amino-N-((1r,4r)-4-((2-oxoindoline)-5-sulfonamido)cyclohexyl)propanamide] reads greater than 100 µM.
Regarding `NCCC(=O)N[C@H]1CC[C@H](NC(=O)CCCn2ccnc2)CC1` [compound 375, N-((1r,4r)-4-(3-aminopropanamido)cyclohexyl)-4-(1H-imidazol-1-yl)butanamide], the IC50 is greater than 100 µM.
On the same count and under the same terms, in the case of `CC(NC(=O)C1C[C@@H]2C=C[C@H]1C2)C1CCN(C(=O)[C@H](C)N)CC1` (stereo partly drawn) [compound 338, (1r,4r)-N-(1-(1-(L-alanyl)piperidin-4-yl)ethyl)bicyclo[2.2.1]hept-5-ene-2-carboxamide] it was greater than 100 µM; in that of `Nc1n[nH]c(C(=O)N[C@H]2CC[C@H](N)CC2)n1` [compound 508, 3-amino-N-((1r,4r)-4-aminocyclohexyl)-1H-1,2,4-triazole-5-carboxamide], greater than 50 µM; in that of `CC(NC(=O)c1cncc(O)c1)C1CCN(C(=O)[C@H](C)N)CC1` (stereo partly drawn) [compound 513, N-(1-(1-(L-alanyl)piperidin-4-yl)ethyl)-5-hydroxynicotinamide], greater than 50 µM.
As for `Cc1cnccc1C(=O)N[C@H]1CC[C@H](N)CC1` [compound 380, N-((1r,4r)-4-aminocyclohexyl)-3-methylisonicotinamide], the IC50 is greater than 100 µM.
On the same count and under the same terms, the result for `CC(NC(=O)c1cc2ccccc2n1C)C1CCN(C(=O)[C@H](C)N)CC1` (stereo partly drawn) [compound 244, N-(1-(1-(L-alanyl)piperidin-4-yl)ethyl)-1-methyl-1H-indole-2-carboxamide] reads greater than 100 µM.
Turning to `COc1cccc2[nH]cc(C(=O)N[C@H]3CC[C@H](N)CC3)c12` [compound 372, N-((1r,4r)-4-aminocyclohexyl)-4-methoxy-1H-indole-3-carboxamide], the IC50 was greater than 100 µM.

Still in this assay, the particulars now being: read-out: SMYD3 Biochem IC50 (μM)*.
Turning to `CC(NC(=O)c1ccc2c(c1)NC(=O)CC2)C1CCN(C(=O)[C@H](C)N)CC1` (stereo partly drawn) [compound 92, N-(1-(1-(L-alanyl)piperidin-4-yl)ethyl)-2-oxo-1,2,3,4-tetrahydroquinoline-7-carboxamide], the IC50 worked out at 50 µM.
On the same count and under the same terms, in the case of `N[C@H]1CC[C@H](NC(=O)c2ccc3c(c2)CC(=O)N3)CC1` [compound 42, N-((1r,4r)-4-aminocyclohexyl)-2-oxoindoline-5-carboxamide] it was 3.31 µM; in that of `N[C@H]1CC[C@H](NC(=O)c2ccc3c(c2)CCC(=O)N3)CC1` [compound 74, N-((1r,4r)-4-aminocyclohexyl)-2-oxo-1,2,3,4-tetrahydroquinoline-6-carboxamide], 65.8 µM; in that of `CCC(=O)c1c[nH]c(C(=O)NC(c2ccccc2)C2CCNCC2)c1` (stereo not shown) [compound 77, N-(phenyl(piperidin-4-yl)methyl)-4-propionyl-1H-pyrrole-2-carboxamide], 10 µM.
Same read-out and setting: the result for `CCOC(=O)C1(CNC(=O)c2ccc3c(c2)CC(=O)N3)CCNCC1` [compound 131, ethyl 4-((2-oxoindoline-5-carboxamido)methyl)piperidine-4-carboxylate] reads 56.3 µM.
Same read-out and setting: the result for `N[C@H]1CC[C@H](NC(=O)c2ccncc2)CC1` [compound 140, N-((1r,4r)-4-aminocyclohexyl)isonicotinamide] reads greater than 100 µM.
Take `O=C1CNc2cc(C(=O)NC3CCNCC3)ccc2N1` [compound 39, 2-oxo-N-(piperidin-4-yl)-1,2,3,4-tetrahydroquinoxaline-6-carboxamide]: the IC50 was 23.9 µM.
Still for that read-out and setting: the result for `N[C@@H](Cc1c[nH]c2ccccc12)C(=O)N1CCC(NC(=O)c2ccc3c(c2)CC(=O)N3)CC1` [compound 51, N-(1-(L-tryptophyl)piperidin-4-yl)-2-oxoindoline-5-carboxamide] reads 0.69 µM.
On the same count and under the same terms, the result for `Cc1cc(C(=O)NC(c2ccccc2)C2CCNCC2)n(Cc2ccccc2)n1` (stereo not shown) [compound 32, 1-benzyl-3-methyl-N-(phenyl(piperidin-4-yl)methyl)-1H-pyrazole-5-carboxamide] reads 91.3 µM; that for `N[C@@H](Cc1ccc(O)cc1)C(=O)N1CCC(NC(=O)c2ccc3c(c2)NC(=O)C3)CC1` [compound 72, N-(1-(L-tyrosyl)piperidin-4-yl)-2-oxoindoline-6-carboxamide], 35.5 µM.
On the same count and under the same terms, the result for `CC(=O)Nc1ccc(S(=O)(=O)N2CCC(NC(=O)c3cnn(C)c3)CC2)cc1` [compound 8, N-(1-((4-acetamidophenyl)sulfonyl)piperidin-4-yl)-1-methyl-1H-pyrazole-4-carboxamide] reads greater than 100 µM.
